Experimental data taken from article PMC4475474 (Journal of biomolecular screening, 2015).
Like-named read-outs stand apart in the source and are kept apart here.

Target: Full-length human SAMHD1 (Homo sapiens, UniProt Q9Y3Z3)
Test: Enzyme-coupled malachite green
Assay type: biochemical
Settings: for SAMHD1 inhibition (in words): MG assay dose-response curves; for Hill slope h: variable Hill slope fit (eq 2)

Chain of Full-length human SAMHD1 (Q9Y3Z3 whole entry): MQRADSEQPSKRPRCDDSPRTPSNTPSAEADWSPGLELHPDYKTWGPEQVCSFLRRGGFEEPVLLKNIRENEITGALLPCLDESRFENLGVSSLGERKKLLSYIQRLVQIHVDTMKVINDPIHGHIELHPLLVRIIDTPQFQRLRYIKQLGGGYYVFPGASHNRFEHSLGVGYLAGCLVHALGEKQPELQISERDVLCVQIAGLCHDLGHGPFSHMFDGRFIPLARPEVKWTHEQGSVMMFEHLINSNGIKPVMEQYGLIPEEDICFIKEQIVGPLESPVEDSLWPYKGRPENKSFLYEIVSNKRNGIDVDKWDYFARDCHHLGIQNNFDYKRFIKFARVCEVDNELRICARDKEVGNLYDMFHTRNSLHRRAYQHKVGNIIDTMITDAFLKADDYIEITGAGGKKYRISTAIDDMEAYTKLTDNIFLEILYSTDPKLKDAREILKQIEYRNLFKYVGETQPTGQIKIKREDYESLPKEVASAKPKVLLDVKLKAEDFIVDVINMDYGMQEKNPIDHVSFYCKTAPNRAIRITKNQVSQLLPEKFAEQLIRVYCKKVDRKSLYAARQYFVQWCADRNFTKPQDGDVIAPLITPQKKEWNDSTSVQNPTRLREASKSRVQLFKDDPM

Compound	SAMHD1 inhibition (in words)	other results
Nc1nc2c(ncn2[C@H]2C[C@H](O)[C@@H](CO)O2)c(=O)[nH]1 [dGuo, deoxyguanosine]	significant inhibition	IC50: 488 ± 50 µM
O=c1[nH]cnc2c1ncn2[C@H]1C[C@H](O)[C@@H](CO)O1 [dIno]	significantly less inhibitory	–
[Cl-].[Cl-].[Zn+2] [Zn^2+]	–	Hill slope h (MG assay dose-response): 1.2 ± 0.1; IC50 (MG assay dose-response, 0.5 μM SAMHD1, 5 μM PPase, 0.1 mM dGTP, 5 mM MgCl2): 2.1 ± 0.2 µM; inhibition after addition of EDTA (approximately stoichiometric amounts of EDTA added): completely rescued
Nc1ncnc2c1ncn2[C@H]1C[C@H](O)[C@@H](CO)O1 [dAdo, deoxyadenosine]	only dGuo showed significant inhibition	–
CC(=O)OCC1=C(C(=O)O)N2C(=O)[C@@H](NC(=O)CCC[C@@H](N)C(=O)O)[C@H]2SC1 [Ceph C, cephalosporin C]	weakly inhibitory	–
Nc1ccn([C@H]2C[C@H](O)[C@@H](CO)O2)c(=O)n1 [dCyt, deoxycytosine]	only dGuo showed significant inhibition	–
Nc1nc2c(ncn2[C@H]2CC[C@@H](CO)O2)c(=O)[nH]1 [ddGuo]	significantly weaker inhibition	–
O=c1ccn([C@H]2C[C@H](O)[C@@H](CO)O2)c(=O)[nH]1 [dUrd, deoxyuridine]	only dGuo showed significant inhibition	–
CC(=O)OCC1=C(C(=O)O)N2C(=O)[C@@H](NC(=O)CCC[C@@H](N)C(=O)O)[C@H]2SC1 [CC-Zn, cephalosporin C]	–	Hill slope h (MG assay dose-response): 1.4 ± 0.1; fold more potent inhibitor (Zn2+ salt vs sodium salt of Ceph C) (ratio of IC50 values of the two salt forms): 200 fold
Nc1nc2c(ncn2[C@@H]2O[C@H](CO)[C@@H](O)[C@H]2O)c(=O)[nH]1 [rGuo]	significantly weaker inhibition	–
Cc1cn([C@H]2C[C@H](O)[C@@H](CO)O2)c(=O)[nH]c1=O [dThy, deoxythymidine]	only dGuo showed significant inhibition	–
